In PubChem BioAssay (NCI):
Values joined by “and” are separate entries in the source; they are usually repeats but may differ in a detail not shown here. Equal values may be shown once.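 Where inhibition never reached the appropriate level, the endpoint shown equals the highest concentration tested. Otherwise, values were interpolated linearly from a five-concentration, 48-hour dose response in 96-well plates. GI50: concentration for 50% inhibition of growth. TGI: concentration producing complete growth inhibition.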

Key:
Assay in all cases: NCI tumour cell line growth inhibition, 48 h
OVCAR-8 ovarian = tested on: OVCAR-8 ovarian
SNB-78 CNS = tested on: SNB-78 CNS
DLD-1 colon = tested on: DLD-1 colon
XF 498 CNS = tested on: XF 498 CNS
KM20L2 colon = tested on: KM20L2 colon
DMS 114 small cell lung = tested on: DMS 114 small cell lung
DMS 273 small cell lung = tested on: DMS 273 small cell lung
SF-539 CNS = tested on: SF-539 CNS
HOP-18 NSCLC = tested on: HOP-18 NSCLC
M19-MEL melanoma = tested on: M19-MEL melanoma

SMILES	TGI (OVCAR-8 ovarian) [µM]	TGI (SF-539 CNS)	further results
Cc1ccc(OP2(=O)Oc3ccc4ccccc4c3CN2c2ccc(Cl)cc2)cc1C (stereo unspecified)	> 100	> 100 µM	TGI (SNB-78 CNS): > 100 µM; TGI (DLD-1 colon): > 100 µM; TGI (XF 498 CNS): > 100 µM; TGI (KM20L2 colon): > 100 µM; TGI (DMS 114 small cell lung): > 100 µM; TGI (DMS 273 small cell lung): > 100 µM; TGI (HOP-18 NSCLC): > 100 µM; TGI (M19-MEL melanoma): > 100 µM
Cc1ccc(N=Nc2c(O)c3ccccc3[nH]c2=O)c(S(=O)(=O)N(C)C)c1	> 100	> 100 µM	–
CSc1nc2c(c(N(C)C)n1)C=Nn1c(nc3ccccc31)S2	> 100	–	–
COc1c2cc(C(C)(C)C)cc1CSCc1cc(C(C)(C)C)cc(c1OC)CCCCC2	> 50	> 50 µM	–
O=S(=O)(O)c1ccc(NN(c2c(O)ccc3ccccc23)S(=O)(=O)O)cc1	> 100	> 100 µM	–
CO/C(=N\N=C(/C)C(F)(F)F)c1ccncc1	> 100	–	–
On1c(-c2ccccc2)c(-c2c(-c3ccccc3)n(O)c3ccccc23)c2ccccc21	> 100	58.8 µM	TGI (SNB-78 CNS): > 100 µM; TGI (DLD-1 colon): > 100 µM; TGI (XF 498 CNS): 71 µM; TGI (DMS 114 small cell lung): 66 µM; TGI (DMS 273 small cell lung): > 100 µM; TGI (HOP-18 NSCLC): 86.3 µM; TGI (M19-MEL melanoma): > 100 µM
O=S(=O)(O)c1cc(Cl)c(O)c2ncc(Cl)cc12	> 100	> 100 µM	–
O=c1c2cc([N+](=O)[O-])ccc2n2n1Cc1ccccc1CC2	> 100	> 100 µM	–
Oc1ccc(-c2cc(-c3c(O)cc(O)cc3O)on2)cc1	> 100	> 100 µM	–
Cc1cc(Br)c(N2C3=C(CC4=C2CCCC4=O)C(=O)CCC3)c(Br)c1	> 100	> 100 µM	–
CCOC(=O)c1cc2cc(Cc3ccc4[nH]c(C(=O)OCC)cc4c3)ccc2[nH]1	23.6	36.3 µM	–
c1cnc2c(c1)-n1cccc1C1(CCOCC1)NN2	> 100	> 100 µM	TGI (DLD-1 colon): > 100 µM; TGI (XF 498 CNS): > 100 µM; TGI (KM20L2 colon): > 100 µM; TGI (DMS 114 small cell lung): > 100 µM; TGI (DMS 273 small cell lung): > 100 µM; TGI (HOP-18 NSCLC): > 100 µM; TGI (M19-MEL melanoma): > 100 µM
O=C1CC(NC(=O)C(F)(F)F)c2c(Br)sc(N3CCC(c4ccccc4)CC3)c21 (stereo unspecified)	> 100	> 100 µM	–
C=C1CC2CC[C@@]34C[C@@H]5O[C@@H]6C(O[C@H]7CC[C@H](CC(=O)OC8[C@@H](C)C9OC%10C[C@]%11(C[C@@H]%12O[C@@]%13(C[C@@H](C)[C@@H]%12O%11)C[C@H](C)[C@@H]%11OC%12CC(C(O)CO)OC%12C[C@@H]%11O%13)OC%10CC9O[C@H]8C[C@H]8O[C@@H](CC[C@@H]1O2)C[C@@H](C)C8=C)O[C@@H]7[C@@H]6O3)C5O4 (stereo partly specified)	0.0305	0.00562 µM and 0.00215 µM	GI50 (OVCAR-8 ovarian): < 0.000148 µM; GI50 (SNB-78 CNS): < 0.000148 µM; TGI (SNB-78 CNS): 1.32 µM; GI50 (DLD-1 colon): < 0.000148 µM; TGI (DLD-1 colon): > 1.48 µM; GI50 (XF 498 CNS): < 0.000148 µM; GI50 (KM20L2 colon): < 0.000148 µM; TGI (DMS 114 small cell lung): 0.00428 µM and 0.0198 µM; GI50 (DMS 273 small cell lung): < 0.000148 µM; TGI (DMS 273 small cell lung): < 0.000148 µM; GI50 (SF-539 CNS): < 0.000148 µM; TGI (HOP-18 NSCLC): > 1.48 µM
c1ccc(COc2ccc(C[P+](c3ccccc3)(c3ccccc3)c3ccccc3)cc2)cc1	2.18	3.5 µM	–
COc1ccc(-n2sc3ncc(-c4ccccc4)cc3c2=O)cc1	> 100	–	–
COc1ccc(-n2c(CCCC(=O)O)nc3c2C(=O)c2ccccc2C3=O)cc1	> 100	> 100 µM	–
CC(C)(C)C1CCC2c3c([nH]c4ccccc34)C3C(=O)N(c4cc(Br)cc(Br)c4)C(=O)C3C2C1 (stereo unspecified)	50.2	34 µM	–
COC(=O)[C@]1(C)CCCn2c(=O)n(-c3ccccc3)c(=O)n21	> 100	> 100 µM	–

SMILES	TGI (OVCAR-8 ovarian) [µM]	TGI (SF-539 CNS)	further results
O=C(C=P(c1ccccc1)(c1ccccc1)c1ccccc1)C12CC3CC(CC(C3)C1)C2	34.5	37 µM	–
O=C(Cc1ccc(Cl)c(Cl)c1)NCCCN1CCN(CCCN2CCCCC2)CC1	> 100	28.8 µM	–
CCOC(=O)CC(C)C(C#N)(OP1(=O)OC(c2ccccc2)C(C)N1C)c1ccccc1 (stereo unspecified)	> 100	> 100 µM	–
CSc1n[nH]c(N)c1C(=O)Nc1ccc(Cl)cc1	> 100	> 100 µM	–
O=C(NCCNCCO)N/N=C/c1cccc([N+](=O)[O-])c1	> 100	> 100 µM	TGI (SNB-78 CNS): > 100 µM; TGI (DLD-1 colon): > 100 µM; TGI (KM20L2 colon): > 100 µM; TGI (DMS 114 small cell lung): > 100 µM; TGI (DMS 273 small cell lung): > 100 µM; TGI (HOP-18 NSCLC): > 100 µM; TGI (M19-MEL melanoma): > 100 µM
O=[N+]([O-])/C(C(Cl)=C(Cl)Cl)=C1\Nc2ccccc2O1	63.9	38.6 µM	–
COc1ccc(NC(=S)NN=C(C)c2cccc(C(C)=NNC(=S)Nc3ccc(OC)cc3)n2)cc1	> 100	> 100 µM	–
C[N+]1(C)C2Cc3ccccc3C1Cc1ccccc12	> 100	> 100 µM	–
Cc1c(C)c(C)c(-n2c(=O)n(C)c(=O)n2C(C)(C)C)c(C)c1C	–	> 100 µM	–
CCOn1cc(C[C@@]2(O)C(=O)OC3[C@@H](O)CO[C@@]32O)c2ccccc21 (stereo partly specified)	> 100	> 100 µM	–
COc1ccc(C2SCC(=O)N2N=C2NC(=O)CC(=O)N2)cc1 (stereo unspecified)	> 100	> 100 µM	–
COc1ccc(C2CC(c3cc4c(C)c(C(=O)c5ccccc5)oc4cc3O)=Nc3ccccc3S2)cc1OC (stereo unspecified)	> 100	> 86.2 µM	–
CCOC(=O)C(NCc1ccccc1)(NC(=O)c1ccccc1)C(F)(F)F (stereo unspecified)	> 100	> 100 µM	–
C=C(NC(=O)C(=C)NC(=O)c1csc(C2=NC3c4csc(n4)C4NC(=O)c5csc(n5)C(C(C)(O)C(C)O)NC(=O)C5CSC(=N5)/C(=C/C)NC(=O)C(C(C)O)NC(=O)c5csc(n5)C3(CC2)NC(=O)C(C)NC(=O)C(=C)NC(=O)C(=C)NC(=O)C(C(C)C)NC2C=Cc3c(C(C)O)cc(nc3C2O)C(=O)OC4C)n1)C(N)=O (stereo unspecified)	8.75	–	–
c1cc(-c2cscc2-c2ccsc2)cs1	–	59.5 µM	–
CCOC(=O)c1nc2c3c(ncn2n1)Oc1c(c(-c2ccccc2)nn1-c1ccccc1)C3c1ccc(OC)c(OC)c1 (stereo unspecified)	82.5	26.8 µM	–
COc1c(C2(c3ccc(F)cc3)SCCCS2)c(=O)c1=O	> 100	> 100 µM	–
Fc1cccc(F)c1C1SCC2=Nc3ccccc3CN21 (stereo unspecified)	–	92.7 µM	–
NC1=CN(CCCO)C2=N/C(=C\c3ccco3)C(=O)N12	> 100	> 100 µM	–
O=C(CCN1CCCCC1CCO)Nc1ccc2c(c1)C(=O)c1ccc(NC(=O)CCN3CCCCC3CCO)cc1C2=O (stereo unspecified)	15.1	7.89 µM	TGI (SNB-78 CNS): 20.1 µM; TGI (DLD-1 colon): 14.9 µM; TGI (KM20L2 colon): 38 µM; TGI (DMS 114 small cell lung): 14.7 µM; TGI (DMS 273 small cell lung): 12.5 µM; TGI (HOP-18 NSCLC): 8.41 µM; TGI (M19-MEL melanoma): 74.9 µM
